{"source": "patent US20080287374A1", "about": "“BREAST CANCER-RESISTANT PROTEIN INHIBITOR” (KABUSHIKI KAISHA YAKULT HONSHA, priority 2003, published 2008)", "key": {"A549/SN-38-4 cell line [1]": {"test_system": "A549/SN-38-4 cell line", "test": "Anticancer drug sensitivity test, A549/SN-38-4", "type": "cell-based, human", "conditions": "stated for the A549/SN-38 cell lines; FIG. 1 shows A549/SN-38-4", "experimental": "Human non-small cell lung cancer A549 cell line was subcultured at 5% CO2 and 37° C. by use of a Ham's F-12 medium containing 10% FBS, 100 U/mL of penicillin, and 100 μg/mL of streptomycin (10% FBS/Ham's F-12). SN-38-resistant A549 cell lines were selected by subculturing the A549 cell line in a medium for two months while the concentration of SN-38 contained in the medium was increased in a stepwise manner (4 to 10 ng/mL). Subsequently, the resultant SN-38-resistant A549 cell lines were subjected to cloning by means of limiting dilution, to thereby establish six cloned SN-38-resistant A549 cell lines (A549/SN-38-1 to 6).\nThereafter, a solution of an anticancer drug in 10% FBS/Ham's F-12 (50 μL) was added to each of the wells, followed by culturing at 5% CO2 and 37° C. for 48 hours. After completion of culturing, the number of viable cells was counted by use of a viable cell counting reagent [TetraColor ONE (trade name), product of Seikagaku Corporation] according to the attached instruction manual. […] “Relative resistance value” is obtained by dividing the IC50 for an A549/SN-38 cell line by the IC50 for the A549 cell line. The greater the relative resistance value, the higher the level of acquired resistance."}, "A549/SN-38-4 cell line [2]": {"test_system": "A549/SN-38-4 cell line", "test": "Amount of anticancer drug accumulated in A549/SN-38 cell line", "type": "cell-based, human", "conditions": "both the A549 cell line and the A549/SN-38-4 cell line; SN-38 300 ng/mL, 60 minutes", "experimental": "The A549 cell line or the A549/SN-38-4 cell line (4×10^6 cells/mL) was suspended in 10% FBS/RPMI1640 (1 mL), and an SN-38 DMSO solution (1 μL, final concentration: 300 ng/mL) was added to the resultant suspension, followed by incubation at 37° C. for 60 minutes. Thereafter, centrifugation was performed (2° C., 1,400×g, 1 min), and the resultant supernatant was removed. Ice-cooled PBS was added to the thus-precipitated cells, and the cells were resuspended therein, followed by centrifugation (2° C., 1,400×g, 1 min) for washing of the cells. This washing procedure was performed again, followed by addition of PBS (375 μL) and sonication of the cells. To the resultant destructed cells, methanol (375 μL) and 10% zinc sulfate solution (15 μL) were added, and the resultant mixture was stirred, followed by centrifugation (2° C., 12,500×g, 5 min) and collection of the supernatant. The thus-collected supernatant was dispensed in a white 96-well microplate for fluorescence intensity measurement (200 μL/well), and then the amounts of SN-38 and an SN-38-glucuronide contained in the supernatant were measured by use of a microplate fluorometer [SPECTRA max GEMINI XS (trade name), product of Molecular Devices] […]"}, "A549/SN-38-4 cell line [3]": {"test_system": "A549/SN-38-4 cell line", "test": "Effect of flavonoid in overcoming anticancer drug (SN-38) resistance of A549/SN-38 cell line", "type": "cell-based, human", "conditions": "Homo sapiens; concentration of flavonoid for 50% reduction of relative resistance value to SN-38; A549/SN-38-4, 48 hours", "experimental": "The A549 cell line or the A549/SN-38-4 cell line was suspended in 10% FBS/Ham's F-12, and the resultant suspension was inoculated into a 96-well microplate, followed by culturing at 5% CO2 and 37° C. overnight (2×10^3 cells/50 μL/well). Thereafter, a solution of a flavonoid and SN-38 in 10% FBS/Ham's F-12 (25 μL) was added to each of the wells, followed by culturing at 5% CO2 and 37° C. for 48 hours. After completion of culturing, the number of viable cells was counted by use of TetraColor ONE according to the attached instruction manual."}, "P388/BCRP cell line": {"test_system": "P388/BCRP cell line", "test": "Effect of flavonoid in overcoming anticancer drug resistance in vivo (survival of tumor-implanted mice)", "design": "species or system mouse", "conditions": "compound 100 mg/kg/day + CPT-11 20 mg/kg/day, intraperitoneally once a day, days 1 to 10; CDF1 mice", "experimental": "Groups of six-week-old female CDF1 mice, each group consisting of 5 mice, were employed. The P388 cell line or the P388/BCRP cell line (1×10^6 cells) was implanted into the peritoneal cavity of each of the mice. […] Merely the solvent was administered to mice in the control group. In order to evaluate the antitumor effect of the flavonoid, survival rate T/C (%) was calculated from the survival days of the tumor-implanted mice by use of the following formula.\nSurvival rate T/C (%)=(the mean survival days of mice in the treated flavonoid group)÷(the mean survival days of mice in the control group)×100"}, "MES-SA/Dx5 cell line": {"test_system": "MES-SA/Dx5 cell line", "test": "Effect of flavonoid on multidrug (paclitaxel) resistance of MES-SA/Dx5 cell line", "type": "cell-based, human", "conditions": "Homo sapiens; concentration of flavonoid for 50% reduction of relative resistance value to paclitaxel; MES-SA/Dx5 (P-glycoprotein overexpression), 48 hours; read-out: Resistance overcoming effect EC50", "experimental": "Human uterine cancer MES-SA cell line or MES-SA/Dx5 cell line which had acquired multidrug resistance through overexpression of P-glycoprotein (Cancer Res. 45, 4091-4096 (1985)) was suspended in 10% FBS/DMEM, and the resultant suspension was inoculated into a 96-well microplate, followed by culturing at 5% CO2 and 37° C. overnight (3×10^3 cells/50 μL/well). Thereafter, a solution of a flavonoid and paclitaxel in 10% FBS/DMEM (25 μL) was added to each of the wells, followed by culturing at 5% CO2 and 37° C. for 48 hours. After completion of culturing, the number of viable cells was counted by use of TetraColor ONE according to the attached instruction manual."}}}
{"smiles": "O=C1c2c(O)ccc(O)c2C(=O)c2c(NCCNCCO)ccc(NCCNCCO)c21", "note": "[mitoxantrone]", "values": [{"measurement": "Resistance of the A549/SN-38 cell lines to the drug (in words)", "setting": "A549/SN-38-4 cell line [1]", "value": "particularly strong resistance"}]}
{"smiles": "CCc1c2c(nc3ccc(O[C@@H]4O[C@H](C(=O)O)[C@@H](O)[C@H](O)[C@H]4O)cc13)-c1cc3c(c(=O)n1C2)COC(=O)[C@]3(O)CC", "note": "[SN-38-glucuronide]", "values": [{"measurement": "SN-38-glucuronide detected in cells", "setting": "A549/SN-38-4 cell line [2]", "value": "virtually no SN-38-glucuronide was detected"}]}
{"smiles": "CCc1c2c(nc3ccc(O)cc13)-c1cc3c(c(=O)n1C2)COC(=O)[C@]3(O)CC", "note": "[SN-38]", "values": [{"measurement": "Resistance of the A549/SN-38 cell lines to the drug (in words)", "setting": "A549/SN-38-4 cell line [1]", "value": "particularly strong resistance"}]}
{"smiles": "COc1ccc(/C=C/C(=O)c2ccc(O)cc2O)cc1OC", "note": "[Compound 3-5, 2′,4′-Dihydroxy-3,4-dimethoxychalcone]", "values": [{"measurement": "EC50", "setting": "A549/SN-38-4 cell line [3]", "value": 0.04, "unit": "µg/mL"}, {"measurement": "Survival days Mean ± S.D.", "setting": "P388/BCRP cell line", "value": "18.4 ± 0.5", "unit": "days"}, {"measurement": "Survival rate T/C", "setting": "P388/BCRP cell line", "value": 153, "unit": "%"}, {"measurement": "EC50", "setting": "MES-SA/Dx5 cell line", "value": "> 1", "unit": "µg/mL"}]}
{"smiles": "COc1cc2oc(-c3ccccc3)cc(=O)c2cc1OC", "note": "[Compound 1-15, 6,7-Dimethoxyflavone]", "values": [{"measurement": "EC50", "setting": "A549/SN-38-4 cell line [3]", "value": 0.16, "unit": "µg/mL"}, {"measurement": "Survival days Mean ± S.D.", "setting": "P388/BCRP cell line", "value": "18.2 ± 3.9", "unit": "days"}, {"measurement": "Survival rate T/C", "setting": "P388/BCRP cell line", "value": 152, "unit": "%"}, {"measurement": "EC50", "setting": "MES-SA/Dx5 cell line", "value": "> 1", "unit": "µg/mL"}]}
{"smiles": "COc1ccc2c(=O)cc(-c3ccc(OC)c(OC)c3)oc2c1", "note": "[Compound 1-14, 3′,4′,7-Trimethoxyflavone]", "values": [{"measurement": "EC50", "setting": "A549/SN-38-4 cell line [3]", "value": 0.0078, "unit": "µg/mL"}, {"measurement": "Survival days Mean ± S.D.", "setting": "P388/BCRP cell line", "value": "18.4 ± 4.5", "unit": "days"}, {"measurement": "Survival rate T/C", "setting": "P388/BCRP cell line", "value": 153, "unit": "%"}, {"measurement": "EC50", "setting": "MES-SA/Dx5 cell line", "value": "> 1", "unit": "µg/mL"}]}
